# Data published in patent publication US7919077B2, “Pharmaceutical compositions comprising CCL2 and use of same for the treatment of inflammation” (Yeda Research and Development Co. Ltd., priority 2006, dated 2011).
# What was measured:
# [1] = Adjuvant arthritis (AA) rat model; type: in vivo, Lewis rats; conditions: rats; CCL2 240 ng daily day 0 to day 5; scored from day 10; FIG. 9
# Method: Adjuvant Arthritis (AA) induction, assessment and treatment with CCL2-—AA was induced as previously described [Kannan, Theor Biol Med Model. (2005) 2:17] using 1 mg per rat of heat-killed Mt strain H37Ra (Difco). Each experimental and control group included at least eight rats. The day of AA induction was designated as day 0 and disease severity was assessed by direct observation of all four limbs in each animal. An observer blind to the experimental procedure scored AA for clinical manifestation of disease. A relative score between 0 and 4 was assigned to each limb, based on the degree of joint inflammation, redness and deformity. The maximum possible score for an individual animal was 16 [Kannan, supra].
# Immediately following AA induction, rats were divided into two groups that were injected daily (from day 0 to day 5) with low dose CCL2 (240 ng in 300 μl of PBS) or PBS as control. Starting from day 10 post induction, the disease was scored as described hereinabove.
# Results were presented as the mean±SEM of the difference between the two values for all the animals in each group. Experiments were repeated at least three times and produced similar results.
# [2] = tested on: human T cells interacting with VCAM-1 (VLA-4); experiment: Laminar flow adhesion assay on VCAM-1 with co-immobilized CCL21; type: cell-based; conditions: low dose chemokine pretreatment
# Method: Laminar flow adhesion assays—Purified VCAM-1 or ICAM-1-Fc (both from R&D Systems, Minneapolis, Minn.) were coated with or without CCL21 (R&D Systems) on polystyrene plates as previously described [Grabovsky et al., J Exp Med. (2000) 192:495-506; Sigal et al., J Immunol. (2000) 165:442-452]. The polystyrene plates were each assembled on the lower wall of the flow chamber as previously described [Feigelson et al., J Biol Chem. (2001) 276:13891-13901]. All flow experiments were conducted at 37° C. Cells were washed with cation-free H/H medium, resuspended in binding medium (H/H medium supplemented with 1 mM CaCl2 and 1 mM MgCl2) and perfused through the flow chamber at low shear stress (0.5-0.75 dyn/cm^2) for 2 minutes. Tethers were defined as transient or rolling if cells attached briefly (<2 seconds) to the substrate and as arrests if immediately arrested and remaining stationary for at least 5 seconds of continuous flow. Frequencies of adhesive categories within differently pretreated cells were determined as a percentage of cells flowing immediately over the substrates, as previously described [Grabovsky et al., supra]. To assess resistance to detachment over time, accumulated cells were subjected to a shear stress of 5 dyn/cm^2 for 5 minutes. At the indicated time points, the number of cells that remained bound was expressed relative to T cell population originally accumulated in the first 2 minute period of the assay. Over 90% of cellular tethers to VCAM-1 or ICAM-1 were blocked by pretreating cells with VLA-4 or LFA-1 blockers respectively.
# [3] = tested on: ERK½; experiment: ERK detection (phospho-ERK western blot) in naïve T cells; type: cell-based, mice; conditions: naïve T cells pre-treated with CCL2 30 minutes, CCL21 for 30 or 60 seconds; FIG. 3
# Method: Stimulation of T cells—Cell stimulation was performed as previously described [Flaishon et al., J Biol Chem. (2001) 276:46701-46706]. Briefly, 1×10^7 T cells were suspended in 1 ml DMEM cell medium containing 10% (v/v) Fetal Calf Serum (FCS). Next, 0.1 ng/ml CCL2 (CytoLab) was added to each tube and the tubes were immediately placed in 37° C. for 30 minutes. Immediately after stimulation, cells were washed and handled as described hereinbelow.
# Preparation of cell extract—Stimulated cells were lysed in lysis buffer containing: 25 mM Tris, pH 7.4; 2 mM Vanadate; 75 mM glycophosphate, pH 7.2; 2 mM EDTA; 2 mM EGTA; 10 mM NaPPi; and 0.5% NP-40, in the presence of the following protease inhibitors: 10 mg/ml Leupeptin; 10 mg/ml aprotinin; 10 mg/ml pepstatin; 10 mg/ml chymostatin (Roche); 1 mM PMSF (Sigma); and 20 mM N-etheyl-melamide (Sigma).
# ERK detection—Cell lysates were separated on a 10% (wt/vol) SDS-PAGE. Proteins were electro-transferred to nitrocellulose membranes and reacted with anti-phospho-specific extracellular signal-regulated kinase (ERK) 1 or 2 (a kind gift from Dr Rony Seger, Weizmann Institute, Rehovot, Israel) followed by peroxidase-labeled goat anti-mouse (Jackson Labs), or reacted with polyclonal anti-Tubulin (Santa Cruz) followed by peroxidase anti-rabbit (Jackson Labs).
# [4] = tested on: effector T cells; experiment: Transwell migration of effector T cells (data not shown); type: cell-based, mice; conditions: low dose CCL2
# [5] = tested on: naive lymphocytes; experiment: Intravital microscopy of mouse subiliac LN: lymphocyte rolling and sticking in HEVs; type: in vivo, C57BL/6 mice
# Method: Intravital microscopy of mouse subiliac LN—Mice were anesthetized by intraperitoneal injection of 1 mg/ml xylazine and 5 mg/ml ketamine. The right femoral artery was catheterized. The left subiliac LN was prepared for IVM as previously described [Carriere et al., Cancer Res. (2005) 65:11639-11648; M'Rini et al., J Exp Med. (2003) 198:1301-1312], and the mouse was then transferred to a customized intravital video microscopy setup (INM 100; Leica Microsystems SA, Rueil-Malmaison, France) equipped with water immersion objectives (HCX APO; Leica Microsystems SA, Rueil-Malmaison, France). Fluorescent events in the LN microcirculation were visualized and recorded by a silicon-intensified target camera (Hamamatsu Photonics, Massy, France) and stored on DVCAM video tapes (DSR-11 Sony, IEC-ASV, Toulouse, France).
# For visualization of naive lymphocyte interactions with LN vascular endothelium, naïve lymphocytes obtained from single T and B cell suspensions of a control C57BL/6 pool of subiliac, axillary, brachial and mesenteric LNs were incubated in the presence or absence of CCL2 (R&D Systems, Lille, France; 1 ng/ml, 30 minutes, 37° C.), fluorescently labeled by calcein AM (Molecular Probes-Invitrogen, Cergy Pontoise, France; 0.25 microM, 5 min, 37° C.) and then injected into the right femoral artery. Cell behavior in LN venules was assessed as previously described [Carriere et al., supra; M'Rini et al., supra]. The rolling fraction was determined as the percentage of cells that rolled along the vascular lining in the total flux of cells per venule. The sticking fraction was determined as the percentage in rolling cells of cells firmly adherent for at least 10 seconds or 1 minute.
substance,measurement,setting,value
"CCL2: mammalian (e.g., human) CCL2 protein, GenBank NM_002982 / NP_002973; murine CCL2 used in the asthma model",adjuvant arthritis disease score (max 16),[1],significantly inhibited the onset of the disease
same,post arrest adhesion strengthening on VCAM-1 (resistance to detachment),"[2]; high shear stress 5 dyn/cm^2, FIG. 6d",failed to develop adhesion strengthening
same,VLA-4 activation by surface bound CCL21 (arrest on VCAM-1),"[2]; shear stress 0.75 dyn/cm^2, FIG. 6c",did not interfere
same,CCL21-induced phosphorylation of ERK½,[3],inhibited
same,CCL21 induced transwell migration of effector cells,[4],down-regulated
same,CXCL12 induced transwell migration of effector cells,[4],down-regulated
same,number of firmly bound lymphocytes in the PLN venular tree,"[5]; 30 minutes after injection of the fluorescent cells, FIGS. 5f-g",striking reduction
same,L-selectin mediated rolling in HEVs (rolling fraction),"[5]; lymphocytes pre-treated with CCL2 1 ng/ml 30 minutes, FIG. 5b",did not significantly alter
same,sticking fraction 10 seconds,"[5]; lymphocytes pre-treated with CCL2 1 ng/ml 30 minutes, vs control, FIG. 5c",comparable
same,percentage of cells which remained adherent 1 minute after initial arrest,"[5]; lymphocytes pre-treated with CCL2 1 ng/ml 30 minutes, vs control, FIG. 5e",severe reduction
same,percentage of cells which remained adherent 30 seconds after initial arrest,"[5]; lymphocytes pre-treated with CCL2 1 ng/ml 30 minutes, vs control, FIG. 5d",severe reduction
